Assay results: ChEMBL document CHEMBL5325413, “Optimization of BAX trigger site activator BTSA1 with improved antitumor potency and in vitro ADMET properties” (Eur J Med Chem, 2023)
pIC50: −log10 of the molar value. Calls of active or inactive are those of the source. The rule behind the calls is not given here.

What was measured:
A549 [1] = test: Induction of apoptosis in human A549 cells assessed as live cells at 10 uM incubated for 48 hrs by Annexin V-FITC/PI staining based flow cytometry analysis (reference value: 96.4%); type: functional
A549 [2] = test: Antiproliferative activity against human A549 cells assessed as reduction in cell viability at 1 to 5 uM by MTT assay; type: functional, cell-based; settings: dose 1-5 µM, time 24-72 hrs, TDE = time-dependent effect
K562 = test: Antiproliferative activity against human K562 cells expressing BAX assessed as cell growth inhibition incubated for 72 hrs by trypan blue cell counting analysis; type: functional
THP-1 = test: Antiproliferative activity against human THP-1 cells expressing BAX assessed as cell growth inhibition incubated for 72 hrs by trypan blue cell counting analysis; type: functional
A549 [3] = test: Inhibition of colony formation in human A549 cells incubated for 2 weeks by crystal violet staining based analysis; type: functional, cell-based; settings: dose 1-3 µM
A549 [4] = test: Induction of apoptosis in human A549 cells assessed as live cells at 10 uM incubated for 48 hrs by Annexin V-FITC/PI staining based flow cytometry analysis (reference value: 95.9 %); type: functional
A549 [5] = test: Induction of apoptosis in human A549 cells assessed as late apoptotic cells at 10 uM incubated for 48 hrs by Annexin V-FITC/PI staining based flow cytometry analysis (reference value: 2.52%); type: functional
A549 [6] = test: Induction of apoptosis in human A549 cells assessed as nuclear fragmentation at 2.5 to 10 uM incubated for 48 hrs by Hoechst 33342 staining based fluorescence microscopic analysis; type: functional, cell-based; settings: dose 2.5-10 µM
A549 [7] = test: Induction of cell cycle arrest in human A549 cells assessed as accumulation of cells at G0/G1 phase at 2.5 uM incubated for 48 hrs by RNase/PI staining based flow cytometry analysis (reference value: 54.82%); type: functional
A549 [8] = test: Induction of apoptosis in human A549 cells assessed as increase in cleaved PARP level incubated for 48 hrs by Western blot analysis; type: functional, cell-based; settings: dose 5-40 µM
[9] = Metabolic stability in human liver microsomes assessed as parent compound remaining at 100 uM incubated for 60 mins in absence of NADPH by LC-MS/MS analysis
[10] = Metabolic stability in mouse liver microsomes assessed as parent compound remaining at 100 uM incubated for 60 mins in presence of NADPH by LC-MS/MS analysis
[11] = Metabolic stability in mouse liver microsomes assessed as parent compound remaining at 100 uM incubated for 60 mins in absence of NADPH by LC-MS/MS analysis
[12] = Stability in rat plasma assessed as compound remaining measured immediately; type: ADME, cell-free; settings: read-out: Stability
[13] = Stability in rat plasma assessed as compound remaining measured after 10 mins; type: ADME, cell-free; settings: read-out: Stability
[14] = Stability in rat plasma assessed as compound remaining measured after 30 mins; type: ADME, cell-free; settings: read-out: Stability
[15] = Stability in rat plasma assessed as compound remaining measured after 60 mins; type: ADME, cell-free; settings: read-out: Stability
[16] = Stability in rat plasma assessed as compound remaining measured after 120 mins; type: ADME, cell-free; settings: read-out: Stability
[17] = Stability in rat plasma assessed as half life; type: ADME, cell-free
Cytochrome P450 1A2 = biological target: T1, Cytochrome P450 1A2 (Homo sapiens, UniProt P05177); test: Inhibition of CYP1A2 in human liver microsomes using phenacetin as substrate prewarmed for 10 mins followed by NADPH addition and measured after 10 mins by LC-MS/MS analysis
T1 sequence (P05177 whole entry): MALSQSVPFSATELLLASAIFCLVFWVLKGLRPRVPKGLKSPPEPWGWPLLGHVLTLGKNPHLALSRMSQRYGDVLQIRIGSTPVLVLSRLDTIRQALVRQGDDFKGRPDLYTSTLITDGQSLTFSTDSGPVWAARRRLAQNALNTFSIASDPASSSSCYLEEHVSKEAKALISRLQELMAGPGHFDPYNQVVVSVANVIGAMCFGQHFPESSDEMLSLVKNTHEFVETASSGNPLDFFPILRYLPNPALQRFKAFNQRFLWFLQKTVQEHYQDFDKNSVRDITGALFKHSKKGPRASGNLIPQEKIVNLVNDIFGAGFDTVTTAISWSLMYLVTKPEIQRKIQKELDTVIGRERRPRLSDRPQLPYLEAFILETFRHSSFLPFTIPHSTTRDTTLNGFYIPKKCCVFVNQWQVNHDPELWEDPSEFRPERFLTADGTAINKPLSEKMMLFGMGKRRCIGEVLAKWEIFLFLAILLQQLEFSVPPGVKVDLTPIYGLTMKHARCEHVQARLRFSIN

Cytochrome P450 2C9 = Cytochrome P450 2C9 (Homo sapiens, UniProt P11712); test: Inhibition of CYP2C9 in human liver microsomes using diclofenac as substrate prewarmed for 10 mins followed by NADPH addition and measured after 10 mins by LC-MS/MS analysis
Cytochrome P450 2D6 = Cytochrome P450 2D6 (Homo sapiens, UniProt P10635); test: Inhibition of CYP2D6 in human liver microsomes using dextromethorphan as substrate prewarmed for 10 mins followed by NADPH addition and measured after 10 mins by LC-MS/MS analysis
Cytochrome P450 3A4 = Cytochrome P450 3A4 (Homo sapiens, UniProt P08684); test: Inhibition of CYP3A4 in human liver microsomes using midazolam as substrate prewarmed for 10 mins followed by NADPH addition and measured after 10 mins by LC-MS/MS analysis
[18] = human, microsomes, 1 h, 100 µM
[19] = human, 1 h, 100 µM
[20] = mouse, microsomes, 1 h, 100 µM
in vitro [21] = settings: human, liver microsomes
in vitro [22] = settings: mouse, liver microsomes

Chain of Cytochrome P450 3A4 (P08684 whole entry): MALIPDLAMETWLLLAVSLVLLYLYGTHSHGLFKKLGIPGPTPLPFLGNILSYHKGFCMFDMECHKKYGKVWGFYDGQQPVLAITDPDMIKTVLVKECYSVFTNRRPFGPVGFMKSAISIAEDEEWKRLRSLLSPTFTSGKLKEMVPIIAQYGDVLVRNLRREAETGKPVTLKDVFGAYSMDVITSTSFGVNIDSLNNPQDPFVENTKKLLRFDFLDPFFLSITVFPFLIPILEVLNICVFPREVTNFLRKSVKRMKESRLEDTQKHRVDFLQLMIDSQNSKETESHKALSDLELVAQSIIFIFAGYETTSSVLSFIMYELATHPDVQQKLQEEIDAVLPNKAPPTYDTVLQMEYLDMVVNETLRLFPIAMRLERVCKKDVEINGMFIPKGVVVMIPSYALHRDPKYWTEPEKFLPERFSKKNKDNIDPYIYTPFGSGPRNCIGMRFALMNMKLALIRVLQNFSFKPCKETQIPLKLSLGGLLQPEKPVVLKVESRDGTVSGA
Chain of Cytochrome P450 2D6 (P10635 whole entry): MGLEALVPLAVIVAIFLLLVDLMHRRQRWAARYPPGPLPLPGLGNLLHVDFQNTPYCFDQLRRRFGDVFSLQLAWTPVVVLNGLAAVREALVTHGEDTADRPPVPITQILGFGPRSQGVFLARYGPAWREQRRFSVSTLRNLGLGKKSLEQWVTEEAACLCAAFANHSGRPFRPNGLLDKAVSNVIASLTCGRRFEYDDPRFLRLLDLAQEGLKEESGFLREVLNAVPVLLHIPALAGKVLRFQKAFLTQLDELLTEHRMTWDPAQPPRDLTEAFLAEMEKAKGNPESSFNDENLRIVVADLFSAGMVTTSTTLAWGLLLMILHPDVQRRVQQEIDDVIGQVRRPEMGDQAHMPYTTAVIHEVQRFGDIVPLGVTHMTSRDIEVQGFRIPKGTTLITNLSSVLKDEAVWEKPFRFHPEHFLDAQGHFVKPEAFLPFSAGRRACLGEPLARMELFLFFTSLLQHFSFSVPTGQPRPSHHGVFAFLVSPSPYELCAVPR
Chain of Cytochrome P450 2C9 (P11712 whole entry): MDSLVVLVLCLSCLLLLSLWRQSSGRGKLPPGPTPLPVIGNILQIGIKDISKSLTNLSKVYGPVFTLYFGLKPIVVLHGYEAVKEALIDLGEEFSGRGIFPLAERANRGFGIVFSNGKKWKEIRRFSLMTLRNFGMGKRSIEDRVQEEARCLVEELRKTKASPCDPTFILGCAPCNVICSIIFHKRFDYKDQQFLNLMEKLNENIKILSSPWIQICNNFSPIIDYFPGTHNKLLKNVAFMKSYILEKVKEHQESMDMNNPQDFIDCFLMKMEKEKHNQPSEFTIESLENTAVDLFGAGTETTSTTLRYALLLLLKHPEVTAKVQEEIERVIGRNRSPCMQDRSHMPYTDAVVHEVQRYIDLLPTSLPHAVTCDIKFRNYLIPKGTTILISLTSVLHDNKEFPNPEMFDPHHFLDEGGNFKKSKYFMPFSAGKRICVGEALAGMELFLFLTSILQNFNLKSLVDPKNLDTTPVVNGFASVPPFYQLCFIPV

Structure (SMILES): CN(C)C1CCN(C(=O)c2ccc(N3N=C(c4ccccc4)/C(=N/Nc4ccccc4)C3=O)cc2)CC1
- Activity (A549 [1]): 95.9%
- Activity (A549 [2]): Tde
- GI50 (K562): 1.41 µM
- GI50 (THP-1): 2.18 µM
- inhibition (A549 [3]): Dose-Dependent Effect
- Activity (A549 [4]): 26.1%
- Activity (A549 [5]): 18.4%
- Activity (A549 [6]): Active
- Activity (A549 [7]): 58.46%
- Activity (A549 [8]): Dose-Dependent Effect
- remaining at 1 h, 100 µM [9]: 102%
- remaining at 1 h, 100 µM [10]: 74.1%
- remaining at 1 h, 100 µM [11]: 96%
- remaining at 0 min [12]: 100%
- remaining at 10 min [13]: 99.4%
- remaining at 0.5 h [14]: 99.1%
- remaining at 1 h [15]: 94.8%
- remaining at 2 h [16]: 92.9%
- half-life [17]: > 4.82 h
- pIC50 (Cytochrome P450 1A2): < 4.30
- pIC50 (Cytochrome P450 2C9): < 4.30
- pIC50 (Cytochrome P450 2D6): < 4.30
- pIC50 (Cytochrome P450 3A4): < 4.30
- CLint [18]: < 9.6 µL/min/mg
- CLH [19]: < 8.6 mL/min/kg
- CLint [20]: < 9.6 µL/min/mg
- half-life at 1 h, 100 µM (in vitro [21]): > 2.42 h
- half-life at 1 h, 100 µM (in vitro [22]): > 2.42 h
